Data on 24 compounds can be found in patent publication US20250353821A1, “BENZENE SULFONAMIDE THIAZOLE COMPOUNDS AND THEIR USE FOR THE TREATMENT OF CANCERS” (INSERM (INSTITUT NATIONAL DE LA SANTÉ ET DE LA RECHERCHE …, priority 2021, published 2025).

The subject of data set [1] is A375 melanoma cells. Put plainly: Cell viability by cell counting, trypan blue exclusion method. The class given is cell-based. Conditions: Homo sapiens, A-375, 48 h, percentage of cells alive relative to negative control DMSO (100%).
Another data set in a line: Aqueous solubility. Type of data set: physicochemical. Conditions: aqueous medium (not further specified), read-out: Solublity.
For data set [2], the system named is A375 melanoma cells. Put plainly: IC50 determination in A375 cells, blue trypan exclusion. The class given is cell-based, human. Conditions: Homo sapiens, A-375; A375, serum free, 24 h.

Converted amounts (≈) assume the structure as drawn.

In the case of `COc1ccc(-c2csc(NC(C)=O)n2)cc1NS(=O)(=O)c1cccc2c(N(C)C)cccc12` [PB600, N-(4-(3-((5-(dimethylamino)naphthalene)-1-sulfonamido)-4-methoxyphenyl)thiazol-2-yl)acetamide], the viability (as a rule, a read-out of living cells in per cent, often relative to untreated cells) at 10 µM with A375 melanoma cells [1] was 48.8 ± 4.3%.

As for `CN(C)c1cccc2c(S(=O)(=O)Nc3cc(-c4csc(NC(=O)CN5CCN(CCO)CC5)n4)ccc3F)cccc12` [PB601, N-(4-(3-((5-(dimethylamino)naphthalene)-1-sulfonamido)-4-fluorophenyl)thiazol-2-yl)-2-(4-(2-hydroxyethyl)piperazin-1-yl)acetamide], the solubility in the data set “Aqueous solubility” came out at 5.2 ± 1.9 µM (≈ 3.19 µg/mL). In the data set with A375 melanoma cells [1], the viability at 1 µM was 47.2 ± 6.7%, the viability at 5 µM was 22.5 ± 5.3% and the viability at 10 µM stood at 10.2 ± 2.7%.

For `COc1ccc(-c2csc(NC(=O)CN3CCN(CCO)CC3)n2)cc1NS(=O)(=O)c1cccc2c(N(C)C)cccc12` [PB602, N-(4-(3-((5-(dimethylamino)naphthalene)-1-sulfonamido)-4-methoxyphenyl)thiazol-2-yl)-2-(4-(2-hydroxyethyl)piperazin-1-yl)acetamide], in “Aqueous solubility”, the solubility came to 3.4 ± 0.7 µM (≈ 2.12 µg/mL). Besides, in the data set on A375 melanoma cells [1], the viability at 1 µM turned out to be 47.6 ± 2.4%, the viability at 5 µM stood at 1.7 ± 0.9% and the viability at 10 µM was determined as 1 ± 1%.

As to `COCCOc1ccc(-c2csc(NC(C)=O)n2)cc1NS(=O)(=O)c1cccc2c(N(C)C)cccc12` [PB603, N-(4-(3-((5-(dimethylamino)naphthalene)-1-sulfonamido)-4-(2-methoxyethoxy)phenyl)thiazol-2-yl)acetamide], in the data set with A375 melanoma cells [1], the viability at 10 µM stood at 43.1 ± 8.7%.

With `COCCOc1ccc(-c2csc(NC(=O)CN3CCN(CCO)CC3)n2)cc1NS(=O)(=O)c1cccc2c(N(C)C)cccc12` [PB604, N-(4-(3-((5-(dimethylamino)naphthalene)-1-sulfonamido)-4-(2-methoxyethoxy)phenyl)thiazol-2-yl)-2-(4-(2-hydroxyethyl)piperazin-1-yl)acetamide], in “Aqueous solubility”, the solubility amounted to 4.1 ± 0.4 µM (≈ 2.74 µg/mL). Also, in the data set on A375 melanoma cells [1], the viability at 1 µM worked out at 57.7 ± 16.5%, the viability at 5 µM was 19 ± 8.6% and the viability at 10 µM is 16.3 ± 9.8%.

In the case of `CN(C)c1cccc2c(S(=O)(=O)Nc3cccc(-c4csc(NC(=O)COCC(O)CO)n4)c3)cccc12` (stereo not drawn) [PB605, 2-(2,3-dihydroxypropoxy)-N-(4-(3-((5-(dimethylamino)naphthalene)-1-sulfonamido)phenyl)thiazol-2-yl)acetamide], in “Aqueous solubility”, the solubility is 2.8 ± 0.5 µM (≈ 1.56 µg/mL). Also, in the data set with A375 melanoma cells [1], the viability at 1 µM is 64.5 ± 4.3%, the viability at 5 µM turned out to be 29.4 ± 9.8% and the viability at 10 µM came out at 6.4 ± 0.6%.

Take `CN(C)c1cccc2c(S(=O)(=O)Nc3cccc(-c4csc(NC(=O)CCCCCNC(=O)OC(C)(C)C)n4)c3)cccc12` [PB624, Tert-butyl(6-((4-(3-((5-(dimethylamino)naphthalene)-1-sulfonamido)phenyl)thiazol-2-yl)amino)-6-oxohexyl)carbamate]: in the data set with A375 melanoma cells [1], the viability at 5 µM turned out to be 87.8 ± 16.2% and the viability at 10 µM was 33.3 ± 5.5%.

As to `CCOC(=O)CCCC(=O)Nc1nc(-c2cccc(NS(=O)(=O)c3cccc4c(N(C)C)cccc34)c2)cs1` [PB625, Ethyl 5-((4-(3-((5-(dimethylamino)naphthalene)-1-sulfonamido)phenyl)thiazol-2-yl)amino)-5-oxopentanoate], in the data set on A375 melanoma cells [1], the viability at 5 µM turned out to be 93 ± 3% and the viability at 10 µM was 36.5 ± 7.5%.

On to `CN(C)c1cccc2c(S(=O)(=O)Nc3cccc(-c4csc(NC(=O)CCCNC(=O)OC(C)(C)C)n4)c3)cccc12` [PB631, Tert-butyl (4-((4-(3-((5-(dimethylamino)naphthalene)-1-sulfonamido)phenyl)thiazol-2-yl)amino)-4-oxobutyl)carbamate], for which, in the data set with A375 melanoma cells [1], the viability at 5 µM came to 31.3 ± 4.9% and the viability at 10 µM was found to be 35.4 ± 14.2%.

On to `CC(=O)NCCCC(=O)Nc1nc(-c2cccc(NS(=O)(=O)c3cccc4c(N(C)C)cccc34)c2)cs1` [PB633], for which, in the data set with A375 melanoma cells [1], the viability at 5 µM worked out at 65.2 ± 9.9% and the viability at 10 µM was 43.8 ± 12.7%.

For the compound `Cc1nc(-c2cccc(NS(=O)(=O)c3cccc4c(N(C)C)cccc34)c2)cs1` [PB635, 5-(dimethylamino)-N-(3-(2-methylthiazol-4-yl)phenyl)naphthalene-1-sulfonamide], in the data set with A375 melanoma cells [1], the viability at 5 µM amounted to 47 ± 13.5% and the viability at 10 µM came out at 46.9 ± 4.4%.

With `CN1CCN(CC(=O)Nc2nc(-c3cccc(NS(=O)(=O)c4cccc5c(N(C)C)cccc45)c3)cs2)CC1` [PB638, N-(4-(3-((5-(dimethylamino)naphthalene)-1-sulfonamido)phenyl)thiazol-2-yl)-2-(4-methylpiperazin-1-yl)acetamide], the solubility in “Aqueous solubility” is 4 ± 2 µM (≈ 2.26 µg/mL). In the data set with A375 melanoma cells [1], the viability at 1 µM was found to be 37.5 ± 5.9%, the viability at 5 µM worked out at 0.9 ± 1% and the viability at 10 µM came out at 0%.

Take `CN(C)c1cccc2c(S(=O)(=O)Nc3cccc(-c4csc(NC(=O)CN5CCOCC5)n4)c3)cccc12` [PB639, N-(4-(3-((5-(dimethylamino)naphthalene)-1-sulfonamido)phenyl)thiazol-2-yl)-2-morpholinoacetamide]: in the data set on A375 melanoma cells [1], the viability at 1 µM amounted to 100 ± 23.6%, the viability at 5 µM turned out to be 63.5 ± 16% and the viability at 10 µM amounted to 24%.

For `CN(C)c1cccc2c(S(=O)(=O)Nc3cccc(-c4csc(NC(=O)CN5CCN(CCO)CC5)n4)c3)cccc12` [PB640, N-(4-(3-((5-(dimethylamino)naphthalene)-1-sulfonamido)phenyl)thiazol-2-yl)-2-(4-(2-hydroxyethyl)piperazin-1-yl)acetamide], the solubility in the data set “Aqueous solubility” was found to be 4.2 ± 0.4 µM (≈ 2.5 µg/mL). Also, in the data set on A375 melanoma cells [1], the viability at 1 µM came out at 54.2 ± 5.9%, the viability at 5 µM stood at 67 ± 10.6% and the viability at 10 µM is 0%.

Regarding `CN(C)c1cccc2c(S(=O)(=O)Nc3cccc(-c4csc(NC(=O)CN5CCC(C(N)=O)CC5)n4)c3)cccc12` [PB641, 1-(2-((4-(3-((5-(dimethylamino)naphthalene)-1-sulfonamido)phenyl)thiazol-2-yl)amino)-2-oxoethyl)piperidine-4-carboxamide], in the data set on A375 melanoma cells [1], the viability at 1 µM was determined as 104 ± 5.9%, the viability at 5 µM was 105 ± 18.9% and the viability at 10 µM amounted to 40%.

For `CN(C)c1cccc2c(S(=O)(=O)Nc3cccc(-c4csc(NC(=O)CNCCO)n4)c3)cccc12` [PB643, N-(4-(3-((5-(dimethylamino)naphthalene)-1-sulfonamido)phenyl)thiazol-2-yl)-2-((2-hydroxyethyl)amino)acetamide], in “Aqueous solubility”, the solubility was determined as 3 ± 1 µM (≈ 1.58 µg/mL). Moreover, in the data set with A375 melanoma cells [1], the viability at 1 µM turned out to be 108 ± 11.8%, the viability at 5 µM is 29.8 ± 6.5% and the viability at 10 µM came to 0%.

As for `CN(C)c1cccc2c(S(=O)(=O)Nc3cccc(-c4csc(NC(=O)CNCCCN5CCOCC5)n4)c3)cccc12` [PB644, N-(4-(3-((5-(dimethylamino)naphthalene)-1-sulfonamido)phenyl)thiazol-2-yl)-2-((3-morpholinopropyl)amino)acetamide], in the data set on A375 melanoma cells [1], the viability at 1 µM was 83.3 ± 23.6%, the viability at 5 µM is 11.7 ± 1.2% and the viability at 10 µM worked out at 8%.

With `CCOP(=O)(NCC(=O)Nc1nc(-c2cccc(NS(=O)(=O)c3cccc4c(N(C)C)cccc34)c2)cs1)OCC` [PB649, Diethyl-(2-((4-(3-((5-(dimethylamino)naphthalene)-1-sulfonamido)phenyl)thiazol-2-yl)amino)-2-oxoethyl)phosphoramidate], in the data set on A375 melanoma cells [1], the viability at 5 µM worked out at 77.7 ± 19.8% and the viability at 10 µM worked out at 26.4 ± 4.5%.

Take `CC(=O)Nc1nc(-c2ccc(F)c(NS(=O)(=O)c3cccc4c(N(C)C)cccc34)c2)cs1` [PB651, N-(4-(3-((5-(dimethylamino)naphthalene)-1-sulfonamido)-4-fluorophenyl)thiazol-2-yl)acetamide]: in the data set on A375 melanoma cells [1], the viability at 5 µM turned out to be 89.4 ± 5.6% and the viability at 10 µM turned out to be 25 ± 8.1%.

Consider `CN(C)c1cccc2c(S(=O)(=O)Nc3cccc(-c4csc(NC(=O)CNCCS(=O)(=O)O)n4)c3)cccc12` [PB654, 2-((2-((4-(3-((5-(dimethylamino)naphthalene)-1-sulfonamido)phenyl)thiazol-2-yl)amino)-2-oxoethyl)amino)ethane-1-sulfonic], for which the solubility in the data set “Aqueous solubility” turned out to be 88 ± 3 µM (≈ 51.9 µg/mL). In the data set on A375 melanoma cells [1], the viability at 5 µM was 89.4 ± 6.5% and the viability at 10 µM amounted to 70 ± 13.8%.

For `CN1CCN(CCCCCC(=O)Nc2nc(-c3cccc(NS(=O)(=O)c4cccc5c(N(C)C)cccc45)c3)cs2)CC1` [PB697, N-(4-(3-((5-(dimethylamino)naphthalene)-1-sulfonamido)phenyl)thiazol-2-yl)-6-(4-methylpiperazin-1-yl)hexanamide], in the data set with A375 melanoma cells [2], 2 µM corresponded to half-maximal inhibition (IC50).

Regarding `CN(C)c1cccc2c(S(=O)(=O)Nc3cccc(-c4csc(NC(=O)CCCCCN5CCN(CCO)CC5)n4)c3)cccc12` [PB698, N-(4-(3-((5-(dimethylamino)naphthalene)-1-sulfonamido)phenyl)thiazol-2-yl)-6-(4-(2-hydroxyethyl)piperazin-1-yl)hexanamide], the IC50 (in general, the concentration at which inhibition is half-maximal) with A375 melanoma cells [2] was 1.75 µM.

Consider `CCCCCc1ccc(S(=O)(=O)Nc2cccc(-c3csc(N4CCN(C)CC4)n3)c2)cc1` [PB707, N-(3-(2-(4-methylpiperazin-1-yl)thiazol-4-yl)phenyl)-4-pentylbenzenesulfonamide], for which, in the data set with A375 melanoma cells [2], the midpoint of inhibition, the IC50, lay at 2.5 µM.

As for `CCCCCc1ccc(S(=O)(=O)Nc2cccc(-c3csc(N4CCN(CCO)CC4)n3)c2)cc1` [PB708, N-(3-(2-(4-(2-hydroxyethyl)piperazin-1-yl)thiazol-4-yl)phenyl)-4-pentylbenzenesulfonamide], the IC50 in the data set with A375 melanoma cells [2] worked out at 2.5 µM.
